Measured values from patent US20210017174A1, “IDENTIFICATION AND USE OF ERK5 INHIBITOR” (Bayer Aktiengesellschaft, priority 2018, published 2021).

Tests used:
[1] = target: T1, ERK5 (Homo sapiens, UniProt Q13164); assay: TR-FRET-based Erk5 activity inhibition assay (biochemical assay ERK5); details: TR-FRET, 250 μM ATP, 1 μM substrate peptide, 60 min at 22° C.; read-out: IC50 value biochemiocal ERK5 asssay
T1 construct: host or cells: E. coli

[2] = system: SN12C-MEF2-luc (clone #37) reporter cell line; assay: Luciferase reporter assay in SN12C-MEF2-luc cells (EGF-stimulated, MEF2-responsive luciferase); type: cell-based; details: Homo sapiens, 16 h compound incubation, then EGF 100 ng/ml for 2 h, ONE-Glo luminescence;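 note: serially diluted compounds at 37 °C, EGF with DMSO as maximum signal and EGF with a 10 µM reference inhibitor as minimum (full inhibition)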

T1 sequence (Q13164 1-398): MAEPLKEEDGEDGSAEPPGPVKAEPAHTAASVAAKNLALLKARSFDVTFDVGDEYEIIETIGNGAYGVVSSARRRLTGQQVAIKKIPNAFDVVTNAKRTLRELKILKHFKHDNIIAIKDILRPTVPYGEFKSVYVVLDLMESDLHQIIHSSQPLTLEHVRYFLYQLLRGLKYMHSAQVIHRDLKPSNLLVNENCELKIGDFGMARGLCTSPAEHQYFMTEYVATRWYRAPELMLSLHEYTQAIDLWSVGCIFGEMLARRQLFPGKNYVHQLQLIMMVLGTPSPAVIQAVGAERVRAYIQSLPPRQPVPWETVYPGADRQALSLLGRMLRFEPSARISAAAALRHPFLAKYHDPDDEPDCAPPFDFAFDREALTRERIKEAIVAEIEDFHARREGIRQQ

Row | SMILES | IC50 [1] [nM] | IC50 [2] [nM]
1 | COC(=O)c1ccc2c(C3CCN(C(=O)c4ccc(OC(F)(F)F)cc4)CC3)ncnc2c1 [Example 31, Methyl 4-{1-[4-(trifluoromethoxy)benzoyl]piperidin-4-yl}quinazoline-7-carboxylate] | 579 | 14600
2 | CNC(=O)c1ccc2c(C3CCN(C(=O)c4ccc(OC(F)(F)F)cc4)CC3)ncnc2c1 [Example 41, N-Methyl-4-{1-[4-(trifluoromethoxy)benzoyl]piperidin-4-yl}quinazoline-7-carboxamide] | 1090 | 7040
3 | O=C(c1ccc(OC(F)(F)F)cc1)N1CCC(c2ncnc3cc(OCCO)ccc23)CC1 [Example 47, {4-[7-(2-Hydroxyethoxy)quinazolin-4-yl]piperidin-1-yl}[4-(trifluoromethoxy)-phenyl]methanone] | 110 | 2450
4 | O=C(c1ccc(OC(F)(F)F)cc1)N1CCC(c2ncnc3cc(OC4CCOCC4)ccc23)CC1 [Example 49, {4-[7-(Tetrahydro-2H-pyran-4-yloxy)quinazolin-4-yl]piperidin-1-yl}[4-(trifluoromethoxy)phenyl]-methanone] | 145 | 352
5 | CC(=O)NCCOc1ccc2c(C3CCN(C(=O)c4ccc(OC(F)(F)F)cc4)CC3)ncnc2c1 [Example 50, N-{2-[(4-{1-[4-(Trifluoromethoxy)benzoyl]piperidin-4-yl}quinazolin-7-yl)oxy]ethyl}acetamide] | 167 | 387
6 | O=C(c1ccc(OC(F)(F)F)cc1)N1CCC(c2ncnc3cc(C4CC4)ccc23)CC1 [Example 51, [4-(7-Cyclopropylquinazolin-4-yl)piperidin-1-yl][4-(trifluoromethoxy)phenyl]-methanone] | 43 | 594
7 | O=C(c1ccc(OC(F)(F)F)cc1)N1CCC(c2ncnc3cc(C4=CCOCC4)ccc23)CC1 [Example 52, {4-[7-(3,6-Dihydro-2H-pyran-4-yl)quinazolin-4-yl]piperidin-1-yl}[4-(trifluoro-methoxy)phenyl]-methanone] | 24.7 | 500
8 | O=C(c1ccc(OC(F)(F)F)cc1)N1CCC(c2ncnc3cc(-c4ccn[nH]4)ccc23)CC1 [Example 53, {4-[7-(1H-Pyrazol-5-yl)quinazolin-4-yl]piperidin-1-yl}[4-(trifluoromethoxy)-phenyl]methanone] | 78.1 | 627
9 | O=C(c1ccc(OC(F)(F)F)cc1)N1CCC(c2ncnc3cc(N4CCCC4=O)ccc23)CC1 [Example 54, 1-(4-{1-[4-(Trifluoromethoxy)benzoyl]piperidin-4-yl}quinazolin-7-yl)pyrrolidin-2-one] | 190 | 942
10 | O=C(c1ccc(OC(F)(F)F)cc1)N1CCC(c2ncnc3cc(OCC(F)F)ccc23)CC1 [Example 64, {4-[7-(2,2-Difluoroethoxy)quinazolin-4-yl]piperidin-1-yl}[4-(trifluoromethoxy)-phenyl]methanone] | 89.8 | 694
11 | COc1ccc2c(C3CCN(C(=O)c4ccc(OC(F)(F)F)cc4NC(C)=O)CC3)ncnc2c1 [Example 67, N-[2-{[4-(7-Methoxyquinazolin-4-yl)piperidin-1-yl]carbonyl}-5-(trifluoro-methoxy)phenyl]acetamide] | 241 | 669

Further lines, results first:

Row | IC50 [1] [nM] | IC50 [2] [nM] | SMILES
12 | 153 | 436 | CN1CCC(Nc2cnc3c(C4CCN(C(=O)c5ccc(OC(F)(F)F)cc5)CC4)ncnc3c2)CC1 [Example 71, (4-{7-[(1-Methylpiperidin-4-yl)amino]pyrido[3,2-d]pyrimidin-4-yl}piperidin-1-yl)[4-(trifluoromethoxy)phenyl]methanone]
13 | 69.3 | 415 | O=C(c1ccc(OC(F)(F)F)cc1)N1CCC(c2ncnc3cc(N4CCC(F)(F)C4)cnc23)CC1 [Example 72, {4-[7-(3,3-Difluoropyrrolidin-1-yl)pyrido[3,2-d]pyrimidin-4-yl]piperidin-1-yl}[4-(trifluoromethoxy)phenyl]methanone]
14 | 39.1 | 253 | CC1(N)CCN(c2cnc3c(C4CCN(C(=O)c5ccc(OC(F)(F)F)cc5)CC4)ncnc3c2)CC1 [Example 73, {4-[7-(4-Amino-4-methylpiperidin-1-yl)pyrido[3,2-d]pyrimidin-4-yl]piperidin-1-yl}[4-(trifluoromethoxy)phenyl]methanone]
15 | 30.3 | 132 | O=C(c1ccc(OC(F)(F)F)cc1)N1CCC(c2ncnc3cc(N4CCC(F)(F)CC4)cnc23)CC1 [Example 77, {4-[7-(4,4-Difluoropiperidin-1-yl)pyrido[3,2-d]pyrimidin-4-yl]piperidin-1-yl}[4-(trifluoromethoxy)phenyl]methanone]
16 | 36.3 | 103 | CC1(C)CN(c2cnc3c(C4CCN(C(=O)c5ccc(OC(F)(F)F)cc5)CC4)ncnc3c2)CCO1 [Example 78, {4-[7-(2,2-Dimethylmorpholin-4-yl)pyrido[3,2-d]pyrimidin-4-yl]piperidin-1-yl}[4-(trifluoromethoxy)phenyl]methanone]
17 | 49.9 | 122 | COC1CCN(c2cnc3c(C4CCN(C(=O)c5ccc(OC(F)(F)F)cc5)CC4)ncnc3c2)CC1 [Example 79, {4-[7-(4-Methoxypiperidin-1-yl)pyrido[3,2-d]pyrimidin-4-yl]piperidin-1-yl}[4-(trifluoromethoxy)phenyl]methanone]
